From ChEMBL document CHEMBL3301361, “Experimental in vitro DMPK and physicochemical data on a set of publicly disclosed compounds”
Converted amounts (≈) assume the structure as drawn.

Tests used:
[1] = human, plasma, 5 h
in vitro [2] = conditions: SD, HW or BN, rat, plasma
[3] = rat, plasma, 5 h
physchem [4] = assay: physchem
physchem [5] = assay: physchem; remark: listed apart in the source
physchem [6] = assay: physchem; remark: listed apart in the source
physchem [7] = conditions: octan-1-ol/water, pH 7.4, LogD7.4
in vitro [8] = conditions: human, plasma, PPB
in vitro [9] = conditions: hepatocytes
in vitro [10] = conditions: human, hepatocytes
physchem [11] = conditions: pH 7.4 buffer
in vitro [12] = conditions: human
in vitro [13] = conditions: Beagle, dog, plasma

## Oc1nc(-c2ccc(C(F)(F)F)cc2)nc2c1CSCC2
[1]
  PPB: 97.6%

## CC1(C)[C@H](NC(=O)/C(=N\OCc2cc(=O)c(O)cn2O)c2csc(N)n2)C(=O)N1OS(=O)(=O)O
In vitro [2]
  fraction unbound at 5 h: 0.124
[1]
  PPB: 69.12%

## O=C(NCc1cccnc1OCC(F)(F)F)c1cncc(-c2ccc(Cl)cc2)c1
[3]
  PPB: 99.87%

## CON=C(C(=O)N[C@@H]1C(=O)N2C(C(=O)O)=C(COC(C)=O)CS[C@H]12)c1csc(N)n1
Physchem [4]
  pKa: 3.35
Physchem [5]
  pKa: 9.43
Physchem [6]
  pKa: 2

## Cc1c(Sc2ccc(Cl)cc2)c2c(NS(C)(=O)=O)cccc2n1CC(=O)O
In vitro [2]
  fraction unbound at 5 h: 0.0031
Physchem [4]
  pKa: 2.9
Physchem [5]
  pKa: 10.2
Physchem [7]
  logD: 0.21
In vitro [8]
  fraction unbound at 5 h: 0.0104
In vitro [9]
  hepatocyte CLint: 5 µL/min/1e6 cells
In vitro [10]
  hepatocyte CLint: 4.76 µL/min/1e6 cells

## CCc1nc2cc(O)ccc2c(Oc2ccc(/C=C/C(=O)O)cc2)c1-c1ccccc1
Physchem [4]
  pKa: 4.34
Physchem [5]
  pKa: 7.81
Physchem [7]
  logD: 3
In vitro [8]
  fraction unbound at 5 h: 0.0056
Physchem [6]
  pKa: 5.51

## NCCc1ccc(O)c(O)c1F
Physchem [4]
  pKa: 7.8
Physchem [5]
  pKa: 10.3
Physchem [6]
  pKa: 8

## NCCc1ccc(O)c2nc(O)ccc12
Physchem [4]
  pKa: 7.6
Physchem [5]
  pKa: 10.2
Physchem [6]
  pKa: 7.7

## O=C(NCCc1ccccc1Cl)c1cc(-n2ncc(=O)[nH]c2=O)ccc1Cl
In vitro [2]
  fraction unbound at 5 h: 0.0224
Physchem [4]
  pKa: 6.1
[1]
  PPB: 97.2%
Physchem [7]
  logD: 1.29
In vitro [9]
  hepatocyte CLint: 8 µL/min/1e6 cells

## CC1(C)S[C@@H]2[C@H](NC(=O)[C@H](N)c3ccc(O)cc3)C(=O)N2[C@H]1C(=O)O [AMOXICILLIN]
Physchem [4]
  pKa: 4.03
Physchem [5]
  pKa: 9.77
Physchem [6]
  pKa: 7.52

## CCCCNc1cc(C(=O)O)cc(S(N)(=O)=O)c1Oc1ccccc1 [BUMETANIDE]
In vitro [2]
  fraction unbound at 5 h: 0.0366
Physchem [4]
  pKa: 3.49
Physchem [11]
  solubility thermodynamic: 1450 µM (≈ 527 µg/mL)
Physchem [5]
  pKa: 9.73
Physchem [7]
  logD: -0.3
In vitro [8]
  fraction unbound at 5 h: 0.0156
In vitro [9]
  hepatocyte CLint: 145 µL/min/1e6 cells
Physchem [6]
  pKa: 6.07
In vitro [12]; microsomes
  microsomal CLint: 4 µL/min/mg

## NCc1ccccc1CC(=O)N[C@@H]1C(=O)N2C(C(=O)O)=C(CSc3nnnn3CC(=O)O)CS[C@H]12 [CEFORANIDE]
Physchem [4]
  pKa: 2.01
Physchem [5]
  pKa: 3.63
Physchem [6]
  pKa: 8.88

## Cc1ccc(-c2cc(C(F)(F)F)nn2-c2ccc(S(N)(=O)=O)cc2)cc1 [CELECOXIB]
Physchem [11]
  solubility thermodynamic: 2.2 µM (≈ 0.839 µg/mL)
[1]
  PPB: 98.94%
Physchem [7]
  logD: 3.42
In vitro [10]
  hepatocyte CLint: 25.7 µL/min/1e6 cells

## COc1ccc([C@@H]2Sc3ccccc3N(CCN(C)C)C(=O)[C@@H]2OC(C)=O)cc1.Cl [DILTIAZEM HYDROCHLORIDE]
[1]
  PPB: 35.46%

## COc1ccc([C@@H]2Sc3ccccc3N(CCN(C)C)C(=O)[C@@H]2OC(C)=O)cc1 [DILTIAZEM]
[1]
  PPB: 75.97%
Physchem [7]
  logD: 1.99
In vitro [13]
  fraction unbound at 5 h: 0.349
In vitro [9]
  hepatocyte CLint: > 150 µL/min/1e6 cells
Physchem [6]
  pKa: 8.08
In vitro [12]; liver microsomes
  microsomal CLint: 43.6 µL/min/mg
In vitro [10]
  hepatocyte CLint: 9.33 µL/min/1e6 cells

## COCCCC/C(=N\OCCN)c1ccc(C(F)(F)F)cc1 [FLUVOXAMINE]
[1]
  PPB: 75.55%

## Cc1ccc(C(=O)N(CCCN)[C@@H](c2nc3cc(Cl)ccc3c(=O)n2Cc2ccccc2)C(C)C)cc1 [ISPINESIB]
[1]
  PPB: 99.4%

## CCCc1c2nc(C(=O)O)cc(NC)c2cc2c(=O)cc(C(=O)O)oc12 [MINOCROMIL]
Physchem [4]
  pKa: < 2
Physchem [5]
  pKa: < 2
Physchem [6]
  pKa: 8.8

## OCCN1CCN(CCCN2c3ccccc3Sc3ccc(Cl)cc32)CC1 [PERPHENAZINE]
In vitro [2]
  fraction unbound at 5 h: 0.0146
[1]
  PPB: 98.51%

## Nc1nc2ccc(OC(F)(F)F)cc2s1 [RILUZOLE]
[1]
  PPB: 97.13%

## O=C(NC[C@H]1CN(c2ccc(N3CCOCC3=O)cc2)C(=O)O1)c1ccc(Cl)s1 [RIVAROXABAN]
[3]
  PPB: 94.56%

## O=C(Nc1c(Cl)cncc1Cl)c1ccc(OC(F)F)c(OCC2CC2)c1 [ROFLUMILAST]
In vitro [2]
  fraction unbound at 5 h: 0.0114
Physchem [11]
  solubility thermodynamic: 1.1 µM (≈ 0.444 µg/mL)
[1]
  PPB: 99.5%
Physchem [7]
  logD: 3.95
In vitro [9]
  hepatocyte CLint: > 150 µL/min/1e6 cells
In vitro [12]; microsomes
  microsomal CLint: 5 µL/min/mg

## N#Cc1cc(-c2n[nH]c(-c3ccncc3)n2)ccn1 [TOPIROXOSTAT]
[1]
  PPB: 84.9%
In vitro [9]
  hepatocyte CLint: < 3 µL/min/1e6 cells
In vitro [12]; liver microsomes
  microsomal CLint: 5 µL/min/mg
